Experimental data as given in patent publication US20110313677A1, “METHOD FOR DETERMINING THE LIVER PERFORMANCE OF A LIVING ORGANISM BY THE MEANS OF QUANTITATIVE MEASURING THE METABOLIZATION OF SUBSTRATES” (HUMEDICS GMBH, priority 2009, published 2011).

Experiments:
[1] = concentration changes of 13C methacetin and its dealkylation product Paracetamol in the blood followed by HPLC; conditions: FIG. 8, blood
Text: (§1) Beside or additionally to the determination of the amount of a ^13C labelled metabolization product as for instance ^13CO2 in the exhalation air for estimating the liver performance it is also conceivable to follow the concentration decrease of the dealkylated product in the blood and to deduce from the corresponding slope kinetics a time constant tau.
(§2) The concentration changes of the administered ^13C labelled substrate, for instance ^13C methacetin and of the dealkylation product formed in the liver, for instance Paracetamol, are followed by the means of a suitable analytical method, for instance HPLC. […] The initial concentration changes can also be described here with a differential equation of first order.

CYP1A2 = target: T1, CYP1A2 (Homo sapiens, UniProt P05177); experiment: breath test: 13CO2 increase in exhalation air after intravenous 13C methacetin (DOB slope kinetics, LiMAx); format: in vivo
T1 construct: follow directly and immediately the metabolization of the administered substrate by the enzymes present in the liver; from tissue; host or cells: liver of the living human subject (in vivo)
T1 sequence (P05177 1-516): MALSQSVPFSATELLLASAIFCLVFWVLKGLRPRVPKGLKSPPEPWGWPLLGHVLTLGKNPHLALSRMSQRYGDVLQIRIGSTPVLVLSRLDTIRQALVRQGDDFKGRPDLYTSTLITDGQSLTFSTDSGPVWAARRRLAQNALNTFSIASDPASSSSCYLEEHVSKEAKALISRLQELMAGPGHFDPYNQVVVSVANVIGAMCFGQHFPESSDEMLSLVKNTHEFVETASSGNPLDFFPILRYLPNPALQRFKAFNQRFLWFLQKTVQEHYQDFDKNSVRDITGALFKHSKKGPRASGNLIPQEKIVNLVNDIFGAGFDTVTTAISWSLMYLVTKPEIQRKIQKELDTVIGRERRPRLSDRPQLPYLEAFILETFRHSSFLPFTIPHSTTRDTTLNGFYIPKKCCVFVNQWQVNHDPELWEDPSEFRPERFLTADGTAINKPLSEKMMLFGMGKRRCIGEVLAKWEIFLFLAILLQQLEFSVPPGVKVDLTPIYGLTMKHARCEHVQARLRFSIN
Text: Thereby, the method according to an aspect of the invention comprises the steps of administering at least one ^13C labelled substrate, which is converted by the liver by releasing at least one ^13C labelled metabolization product, in particular ^13CO2 and the step of determining the amount of the at least one formed ^13C labelled metabolization product, in particular of the ^13CO2 amount, in the exhalation air over a definite time interval by the means of at least one measuring device with at least one evaluation unit. In an embodiment, the amount of the formed ^13C labelled metabolization product, in particular of ^13CO2 in the exhalation air, is proportional to the amount of the at least one administered substrate. The method according to an aspect of the invention is characterized in that it is now possible based on the determined measure points to describe the measured initial increase of the amount of the at least one ^13C labelled metabolization product, in particular of the ^13CO2 amount, in the exhalation air by the means of a differential equation of first order. Based on the solution of this differential equation of first order subsequently a maximum value Amax (also designated as DOBmax, whereby DOB stands for “delta over baseline”) and a time constant tau of the increase of the amount of the ^13C labelled metabolization product, in particular of the ^13CO2 amount, are determined.
wherein (t) stands for the metabolization dynamic of the at least one substrate, t for the measuring time, t0 for the start of the metabolization, tau for the time constant of the conversion and Amax for the maximum amplitude of the fitted function or the maximum concentration of the metabolization product and A0 for the initial concentration of the metabolization product. Therefore, a determination of Amax and the time constant tau is possible based on the above equation.
wherein RPDB corresponds to the value 0,011237 (Pee-Dee-Belemnite-standard of the ^13CO2/^12CO2-ratio), P to the CO2 production rate, M to the molar mass of the administered substance and BW to the body weight of the person.
In an embodiment of the present method the determination of the liver performance of a human occurs according to a scheme as shown in FIG. 2. During this measurement course the metabolization is started by the intravenous administering of the substrate to be metabolized, in particular ^13C methacetin 1 in combination with an isotonic sodium chloride solution 1a.
Beside an enzymatic activation of the substrate in particular by the P450 oxygenases also a release or activation of the substrate by the means of radiation or other fast processes is conceivable. The released metabolization product for instance ^13CO2 is transported via the blood into the lung and is there exhaled. The exhalation air is continuously transported into the measuring device 2, e.g., via a breathing mask and a connecting tube and is analyzed by the means of a computer 3 (Stockmann et al., Annals of Surgery, 2009, 250: col. 119-125). A measuring device suitable for the present method is for instance described in WO 2007/107366 A1.
Due to the specific measuring device being applied it is possible to follow the metabolization of the substrate in each breath in real time. This is emphasized in FIG. 3. […] Thereby 1 DOB indicates a change of the ^13CO2 to ^12CO2 ratio at about thousandth part over the natural ratio. As described before, Amax or DOBmax as well as the time constant tau are deducible from said slope. After the ^13CO2 increase has reached a maximum a decrease of the ^13CO2 concentration occurs what can be attributed to further dynamic processes in the body which contribute to the degradation of the measured signal.
described metabolization dynamics it is possible to follow directly and immediately the metabolization of the administered substrate by the enzymes present in the liver. If methacetin is administered as substrate, it is demethylated by the enzyme CYP1A2. […]

[2] = in vivo
Text: as §1, §2

time constant τ1 for the initial fast concentration increase ([1]; Paracetamol formed from 13C methacetin) [min] | time constant τ2 for the subsequent decelerated concentration increase ([1]; further distribution in the blood) [min] | measured maximum value A of the 13CO2 increase in the breathing air (CYP1A2; FIG. 7, curve A, determined data points) | time constant tau for the conversion (CYP1A2; FIG. 7, curve B, fit of the initial 13CO2 increase) [min] | amplitude Amax of the fitted function (CYP1A2; FIG. 7, curve B, fit with solution of a differential equation of first order) | maximum conversion (CYP1A2; after the operation, residual liver volume 625 ml) [µg/h/kg] | maximum conversion LiMAx (CYP1A2; before the liver operation, total liver volume 1450 ml) [µg/h/kg] | maximum conversion LiMAx (CYP1A2; cirrhosis of the liver (FIG. 4b)) [µg/h/kg] | maximum conversion LiMAx (CYP1A2; corresponding to the aspired residual liver volume of 698 ml (rule of three)) [µg/h/kg] | maximum conversion LiMAx (CYP1A2; liver failure (FIG. 4d)) [µg/h/kg] | maximum conversion LiMAx (CYP1A2; normal liver performance (FIG. 4a)) [µg/h/kg] | initial concentration in the blood [2] [µg/mL] | SMILES | maximum conversion LiMAx (CYP1A2; heavy liver damages (FIG. 4c)) [µg/h/kg]
1.3 | 16 |  |  |  |  |  |  |  |  |  |  | CC(=O)Nc1ccc(O)cc1 [Paracetamol] | 
 |  | 22,01 DOB | 2.42 | 22,09 DOB | 169 | 307 | 307 | 165 | 55 | 504 | 20 | CC(=O)Nc1ccc(O[13CH3])cc1 [^13C methacetin, ^13C-methacetin] | 144
